From ChEMBL document CHEMBL1151918 (Bioorg Med Chem, 2009)
Where a name gives a salt, the structure may show the parent alone.

Tests used:
Histamine H4 receptor [1] = molecular target: T1, Histamine H4 receptor (Homo sapiens, UniProt Q9H3N8); experiment: Displacement of [3H]histamine from human histamine H4 receptor expressed in human SK-N-MC cells by liquid scintillation counting; format: cell-based
Histamine H3 receptor = Histamine H3 receptor (Homo sapiens, UniProt Q9Y5N1); experiment: Displacement of [3H]N-alpha-methylhistamine from human histamine H3 receptor expressed in human SK-N-MC cells by liquid scintillation counting; format: cell-based
Histamine H4 receptor [2] = molecular target: T1, Histamine H4 receptor; experiment: Antagonist activity at human histamine H4 receptor expressed in human SK-N-MC cells assessed as inhibition of 2-[3-(imidazol-4-yl)-propyl]-1-(4-iodo-benzyl)-isothiourea dihydrobromide-induced intrinsic activity; format: functional, cell-based; details: read-out: pA2 (converted)

Histamine H3 receptor, sequence (Q9Y5N1 whole entry): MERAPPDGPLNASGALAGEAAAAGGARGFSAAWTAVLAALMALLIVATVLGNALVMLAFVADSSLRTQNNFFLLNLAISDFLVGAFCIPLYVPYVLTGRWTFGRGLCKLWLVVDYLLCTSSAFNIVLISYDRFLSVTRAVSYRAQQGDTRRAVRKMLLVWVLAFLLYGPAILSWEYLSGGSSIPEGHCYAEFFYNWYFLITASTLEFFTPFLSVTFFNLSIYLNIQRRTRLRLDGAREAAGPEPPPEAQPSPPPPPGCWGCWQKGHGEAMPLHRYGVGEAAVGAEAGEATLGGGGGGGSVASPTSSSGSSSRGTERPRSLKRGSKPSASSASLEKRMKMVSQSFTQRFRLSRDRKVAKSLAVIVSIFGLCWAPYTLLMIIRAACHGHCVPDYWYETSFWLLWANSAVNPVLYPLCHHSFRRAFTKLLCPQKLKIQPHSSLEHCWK
T1 sequence (Q9H3N8 whole entry): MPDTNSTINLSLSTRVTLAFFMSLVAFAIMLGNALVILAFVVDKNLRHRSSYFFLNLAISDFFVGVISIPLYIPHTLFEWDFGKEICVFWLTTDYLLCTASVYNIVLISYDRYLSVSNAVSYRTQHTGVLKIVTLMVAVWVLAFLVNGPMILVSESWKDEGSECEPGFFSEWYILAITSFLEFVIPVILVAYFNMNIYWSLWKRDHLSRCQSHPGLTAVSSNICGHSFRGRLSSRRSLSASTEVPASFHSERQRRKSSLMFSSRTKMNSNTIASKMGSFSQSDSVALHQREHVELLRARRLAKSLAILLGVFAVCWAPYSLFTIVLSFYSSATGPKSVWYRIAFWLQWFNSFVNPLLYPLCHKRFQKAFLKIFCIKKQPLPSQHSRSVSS

Row | SMILES | Ki (Histamine H4 receptor [1]) | Ki (Histamine H3 receptor) | Kb (Histamine H4 receptor [2])
1 | NC(=NCc1ccc(Cl)cc1)SCCCc1cnc[nH]1 [CLOBENPROPIT] | 0.01 µM |  | 
2 | NC(=NCCc1ccc(Br)cc1)SCCCc1cnc[nH]1 | 0.0398 µM | 0.00794 µM | 
3 | NC(=NCCCCc1ccccc1)SCCCc1cnc[nH]1 | 0.0631 µM | 0.02 µM | 
4 | N=C(NCc1ccc(Br)cc1)SCCCc1c[nH]cn1 | 0.01 µM | 0.00251 µM | 
5 | N=C(NCc1ccc(Cl)c(Cl)c1)SCCCc1c[nH]cn1 | 0.00158 µM | 0.00631 µM | 
6 | N=C(NC=C(c1ccccc1)c1ccccc1)NCCCc1c[nH]cn1 | 0.158 µM | 0.316 µM | 
7 | NC(=NCCCc1cnc[nH]1)NCc1ccccc1 | 0.0251 µM | 0.0794 µM | 
8 | N=C(NCCC(c1ccccc1)c1ccccc1)SCCCc1c[nH]cn1 | 0.0251 µM | 0.0316 µM | 
9 | N=C(NCCCc1ccccc1)SCCCc1c[nH]cn1 | 0.0501 µM | 0.01 µM | 
10 | N=C(NCc1cccc(Cl)c1)SCCCc1c[nH]cn1 | 0.0158 µM | 0.00794 µM | 
11 | N=C(NCc1ccc(F)cc1)SCCCc1c[nH]cn1 | 0.0251 µM | 0.00501 µM | 
12 | N=C(N)SCCc1cnc[nH]1 [IMETIT] | 0.00631 µM | 0.00158 µM | 
13 | N=C(N)SCCCc1c[nH]cn1 | 0.0126 µM | 0.00251 µM | 
14 | N=C(NCc1ccccc1Cl)SCCCc1c[nH]cn1 | 0.01 µM | 0.00794 µM | 
15 | COc1ccc(CCNC(=N)SCCCc2c[nH]cn2)cc1 | 0.158 µM | 0.02 µM | 
16 | N=C(NCc1ccc(I)cc1)SCCCc1c[nH]cn1 | 0.01 µM | 0.00316 µM | 
17 | Cc1ccc(CNC(=N)SCCCc2c[nH]cn2)cc1 | 0.0251 µM | 0.00631 µM | 
18 | N=C(NCc1ccccc1)SCCCc1c[nH]cn1 | 0.0251 µM | 0.00794 µM | 0.02 µM
19 | N=C(NCCc1ccccc1)SCCCc1c[nH]cn1 | 0.0631 µM | 0.02 µM | 
20 | Cc1ccc(CCNC(=N)SCCCc2c[nH]cn2)cc1 | 0.1 µM | 0.0126 µM | 
21 | NC(=NCCc1ccc(I)cc1)SCCCc1cnc[nH]1 [IODOPHENPROPIT HYDROBROMIDE] | 0.0158 µM | 0.00794 µM | 
22 | COc1ccc(CNC(=N)SCCCc2c[nH]cn2)cc1 | 0.0126 µM | 0.00794 µM | 
23 | N=C(NCCc1ccc(Cl)cc1)SCCCc1c[nH]cn1 | 0.0316 µM | 0.01 µM | 
